Values quoted from earlier work as cited in patent US20260027014A1, “DEVICES AND METHODS RELATED TO COLORIMETRIC DETECTION FOR DENTAL USES” (CaviSense Inc., priority 2022, published 2026).
Where two headings read alike, the source gives them in different places.

Q: Which solubility (in methanol) does the source give for `OC[C@H]1O[C@@](CO)(O[C@H]2O[C@H](CO)[C@@H](O)[C@H](O)[C@H]2O)[C@@H](O)[C@@H]1O` [sucrose] here?
A: 1 g/100 ml

Q: And the solubility (in water)?
A: 210 g/100 mL
